Assay results reported in patent publication US12558428B2, “Heterobifunctional compounds and their use in treating disease” (Halda Therapeutics OpCo, Inc., priority 2024, dated 2026).

Legend:
Type in all cases: cell-based
[1] = tested on: MCF7 cells (ATCC #HTB-22); experiment: Cellular growth inhibition assay, MCF7 cells purchased from ATCC; conditions: Homo sapiens, MCF7, 144 h, Table 8-A; MCF7 cells purchased from ATCC; six days; CellTiter-Glo; read-out: GI50
How it was run: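 GI50 values come from a four-parameter fit of CellTiter-Glo 2.0 luminescence after six days of compound exposure at 37° C. Seeding density depended on the source: 225 cells/well for ECACC MCF7, 1,500 for ATCC. Medium was RPMI 1640 with 10% FBS and 0.2 U/ml insulin.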

[2] = tested on: T-Rex 293 cells lacking increased expression of estrogen receptor alpha protein; experiment: Cellular growth inhibition assay, T-Rex 293 cells, (−) doxycycline; conditions: T-REx-293, 72 h, Table 7-A; T-Rex 293 cells without doxycycline (lacking increased ERα expression); 72 hours; CellTiter-Glo; read-out: (−) Dox GI50
How it was run: (§1)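 Growth of a doxycycline-inducible ERα T-Rex 293 clone, induced or not with 3 ng/mL doxycycline, was followed for 72 h with test compound in hormone-depleted medium. CellTiter-Glo luminescence gave GI50.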

[3] = tested on: T-Rex 293 cells having increased expression of estrogen receptor alpha protein; experiment: Cellular growth inhibition assay, T-Rex 293 cells, (+) doxycycline; conditions: T-REx-293, 72 h, Table 7-A; T-Rex 293 cells with doxycycline (increased ERα expression); 72 hours; CellTiter-Glo; read-out: (+) Dox GI50
How it was run: as §1

Row | Compound | GI50 [1] | GI50 [2] | GI50 [3]
1 | Cc1sc2c(c1C)C(c1ccc(N3CCC4(CC3)CN(CC3CCN(c5ccc([C@@H]6c7ccc(O)cc7CC[C@@H]6c6ccccc6)cc5)CC3)C4)cc1)=N[C@@H](C)c1nnc(C)n1-2 [III-88] | < 50 nM | 50 to 500 nM | < 50 nM
2 | Cc1sc2c(c1C)C(c1ccc(C3CN(CCN4CC(COc5ccc([C@@H]6c7ccc(O)cc7CC[C@@H]6c6ccccc6)cc5)C4)C3)cc1)=N[C@@H](C)c1nnc(C)n1-2 [III-95] | < 50 nM | 50 to 500 nM | < 50 nM
3 | Cc1sc2c(c1C)C(c1ccc(C3CN(CCN4CC(COc5ccc([C@H]6c7ccc(O)cc7CC[C@H]6c6ccccc6)cc5)C4)C3)cc1)=N[C@@H](C)c1nnc(C)n1-2 [III-96] | 50 to 500 nM | 50 to 500 nM | 50 to 500 nM
4 | Cc1sc2c(c1C)C(c1ccc(N3CC4(CN(CC5CCN(c6ccc([C@@H]7c8ccc(O)cc8CC[C@@H]7c7ccccc7)cc6)CC5)C4)C3)cc1)=N[C@@H](C)c1nnc(C)n1-2 [III-97] | < 50 nM | 500 to 2500 nM | < 50 nM
5 | Cc1sc2c(c1C)C(c1ccc(CCN3CC4(CCN(c5ccc([C@@H]6c7ccc(O)cc7CC[C@@H]6c6ccccc6)cc5)CC4)C3)cc1)=N[C@@H](C)c1nnc(C)n1-2 [III-98] | 50 to 500 nM | 500 to 2500 nM | < 50 nM
6 | Cc1sc2c(c1C)C(c1ccc(N3CC(CN4CC(Oc5ccc([C@H]6c7ccc(O)cc7CC[C@H]6c6ccccc6)cc5)C4)C3)cc1)=N[C@@H](C)c1nnc(C)n1-2 [III-100] | 50 to 500 nM | 50 to 500 nM | 50 to 500 nM
7 | Cc1sc2c(c1C)C(c1ccc(N3CC(CN4CC(COc5ccc([C@@H]6c7ccc(O)cc7CC[C@@H]6c6ccccc6)cc5)C4)C3)cc1)=N[C@@H](C)c1nnc(C)n1-2 [III-101] | 50 to 500 nM | 50 to 500 nM | < 50 nM
8 | Cc1sc2c(c1C)C(c1ccc(NCCN3CCN(CCOc4ccc([C@@H]5c6ccc(O)cc6CC[C@@H]5c5ccccc5)cc4)CC3)cc1)=N[C@@H](Cc1ncco1)c1nnc(C)n1-2 [III-103] | < 50 nM | 50 to 500 nM | < 50 nM
9 | Cc1sc2c(c1C)C(c1ccc(NCCN3CCN(CCOc4ccc([C@H]5c6ccc(O)cc6CC[C@H]5c5ccccc5)cc4)CC3)cc1)=N[C@@H](Cc1ncco1)c1nnc(C)n1-2 [III-104] | < 50 nM | 50 to 500 nM | < 50 nM
10 | Cc1sc2c(c1C)C(c1ccc(N3CCC(N4CCN(CCOc5ccc([C@@H]6c7ccc(O)cc7CC[C@@H]6c6ccccc6)cc5)CC4)CC3)cc1)=N[C@@H](Cc1ncco1)c1nnc(C)n1-2 [III-105] | < 50 nM | 50 to 500 nM | < 50 nM
11 | Cc1sc2c(c1C)C(c1ccc(OCCN3CCN(CCOc4ccc([C@@H]5c6ccc(O)cc6CC[C@@H]5c5ccccc5)cc4)CC3)cc1)=N[C@@H](Cc1ncco1)c1nnc(C)n1-2 [III-109] | 50 to 500 nM | 50 to 500 nM | < 50 nM
12 | Cc1sc2c(c1C)C(c1ccc(OCC3CCN(CCOc4ccc([C@@H]5c6ccc(O)cc6CC[C@@H]5c5ccccc5)cc4)CC3)cc1)=N[C@@H](Cc1ncco1)c1nnc(C)n1-2 [III-111] | 50 to 500 nM | 50 to 500 nM | < 50 nM
13 | Cc1sc2c(c1C)C(c1ccc(OCC3CCN(CCOc4ccc([C@H]5c6ccc(O)cc6CC[C@H]5c5ccccc5)cc4)CC3)cc1)=N[C@@H](Cc1ncco1)c1nnc(C)n1-2 [III-112] | 50 to 500 nM | 50 to 500 nM | 50 to 500 nM
14 | Cc1sc2c(c1C)C(c1ccc(N3CCC(O)(CN4CCN(c5ccc([C@@H]6c7ccc(O)cc7CC[C@@H]6c6ccccc6)cc5)CC4)CC3)cc1)=N[C@@H](C)c1nnc(C)n1-2 [III-118] | 50 to 500 nM | 500 to 2500 nM | < 50 nM
15 | Cc1sc2c(c1C)C(c1ccc(N3CCN(CC4CCN(c5ncc([C@H]6c7ccc(O)cc7CC[C@H]6c6ccccc6)cn5)CC4)CC3)cc1)=N[C@@H](C)c1nnc(C)n1-2 [III-122] | 500 to 2500 nM | > 2500 nM | 500 to 2500 nM

More lines, main results first:

Row | GI50 [1] | Compound | GI50 [2] | GI50 [3]
16 | < 50 nM | Cc1sc2c(c1C)C(c1ccc(N3CCC(CN4CC5(CCN(c6ccc([C@@H]7c8ccc(O)cc8CC[C@@H]7c7ccccc7)cc6)CC5)C4)CC3)cc1)=N[C@@H](C)c1nnc(C)n1-2 [III-87] | 50 to 500 nM | < 50 nM
17 | 50 to 500 nM | Cc1sc2c(c1C)C(c1ccc(N3CC(CN4CCN(c5ccc([C@@H]6c7ccc(O)cc7CC[C@@H]6c6ccccc6)cc5)CC4)C3)cc1)=N[C@@H](C)c1nnc(C)n1-2 [III-89] | 500 to 2500 nM | < 50 nM
18 | 50 to 500 nM | Cc1sc2c(c1C)C(c1ccc(OC3CC4(CCN(c5ccc([C@@H]6c7ccc(O)cc7CC[C@@H]6c6ccccc6)cc5)CC4)C3)cc1)=N[C@@H](C)c1nnc(C)n1-2 [III-90] | > 2500 nM | 500 to 2500 nM
19 | < 50 nM | Cc1sc2c(c1C)C(c1ccc(N3CCC(CN4CC(COc5ccc([C@@H]6c7ccc(O)cc7CC[C@@H]6c6ccccc6)cc5)C4)CC3)cc1)=N[C@@H](Cc1ncco1)c1nnc(C)n1-2 [III-91] | 500 to 2500 nM | 50 to 500 nM
20 | 50 to 500 nM | Cc1sc2c(c1C)C(c1ccc(N3CCC(CN4CC(COc5ccc([C@H]6c7ccc(O)cc7CC[C@H]6c6ccccc6)cc5)C4)CC3)cc1)=N[C@@H](Cc1ncco1)c1nnc(C)n1-2 [III-92] | 50 to 500 nM | 50 to 500 nM
21 | 50 to 500 nM | Cc1sc2c(c1C)C(c1ccc(N3CC(CN4CC(Oc5ccc([C@@H]6c7ccc(O)cc7CC[C@@H]6c6ccccc6)cc5)C4)C3)cc1)=N[C@@H](C)c1nnc(C)n1-2 [III-99] | 50 to 500 nM | 50 to 500 nM
22 | 50 to 500 nM | Cc1sc2c(c1C)C(c1ccc(N3CC(CN4CC(COc5ccc([C@H]6c7ccc(O)cc7CC[C@H]6c6ccccc6)cc5)C4)C3)cc1)=N[C@@H](C)c1nnc(C)n1-2 [III-102] | 50 to 500 nM | 50 to 500 nM
23 | 50 to 500 nM | Cc1sc2c(c1C)C(c1ccc(N3CC(CN4CCC(COc5ccc([C@@H]6c7ccc(O)cc7CC[C@@H]6c6ccccc6)cc5)CC4)C3)cc1)=N[C@@H](C)c1nnc(C)n1-2 [III-106] | 500 to 2500 nM | < 50 nM
24 | 50 to 500 nM | Cc1sc2c(c1C)C(c1ccc(CN3CC4(CCN(c5ccc([C@@H]6c7ccc(O)cc7CC[C@@H]6c6ccccc6)cc5)CC4)C3)cc1)=N[C@@H](C)c1nnc(C)n1-2 [III-107] | 500 to 2500 nM | 50 to 500 nM
25 | < 50 nM | Cc1sc2c(c1C)C(c1ccc(N3CCC4(CC3)CN(CC3CN(c5ccc([C@@H]6c7ccc(O)cc7CC[C@@H]6c6ccccc6)cc5)C3)C4)cc1)=N[C@@H](C)c1nnc(C)n1-2 [III-108] | 50 to 500 nM | < 50 nM
26 | < 50 nM | Cc1sc2c(c1C)C(c1ccc(OCCN3CCN(CCOc4ccc([C@H]5c6ccc(O)cc6CC[C@H]5c5ccccc5)cc4)CC3)cc1)=N[C@@H](Cc1ncco1)c1nnc(C)n1-2 [III-110] | < 50 nM | < 50 nM
27 | < 50 nM | Cc1sc2c(c1C)C(c1ccc(N3CC(N4CCN(CCOc5ccc([C@@H]6c7ccc(O)cc7CC[C@@H]6c6ccccc6)cc5)CC4)C3)cc1)=N[C@@H](Cc1ncco1)c1nnc(C)n1-2 [III-113] | 50 to 500 nM | < 50 nM
28 | 50 to 500 nM | Cc1sc2c(c1C)C(c1ccc(N3CC(N4CCN(CCOc5ccc([C@H]6c7ccc(O)cc7CC[C@H]6c6ccccc6)cc5)CC4)C3)cc1)=N[C@@H](Cc1ncco1)c1nnc(C)n1-2 [III-114] | 50 to 500 nM | < 50 nM
29 | 50 to 500 nM | Cc1sc2c(c1C)C(c1ccc(CN3CCC4(CC3)CCN(c3ccc([C@@H]5c6ccc(O)cc6CC[C@@H]5c5ccccc5)cc3)CC4)cc1)=N[C@@H](C)c1nnc(C)n1-2 [III-115] | 500 to 2500 nM | 50 to 500 nM
30 | 500 to 2500 nM | Cc1sc2c(c1C)C(c1ccc(N3CCC4(CC3)CCN(c3ccc([C@@H]5c6ccc(O)cc6CC[C@@H]5c5ccccc5)cc3)CC4)cc1)=N[C@@H](C)c1nnc(C)n1-2 [III-116] | > 2500 nM | > 2500 nM
31 | 50 to 500 nM | Cc1sc2c(c1C)C(c1ccc(N3CCC4(CC3)CCN(c3ccc([C@@H]5c6ccc(O)cc6CC[C@@H]5c5ccccc5)cc3)C4)cc1)=N[C@@H](C)c1nnc(C)n1-2 [III-117] | 500 to 2500 nM | 500 to 2500 nM
32 | 50 to 500 nM | Cc1sc2c(c1C)C(c1ccc(N3CCC(C(=O)N4CCN(c5ccc([C@@H]6c7ccc(O)cc7CC[C@@H]6c6ccccc6)cc5)CC4)CC3)cc1)=N[C@@H](C)c1nnc(C)n1-2 [III-119] | 500 to 2500 nM | 50 to 500 nM
33 | 50 to 500 nM | Cc1sc2c(c1C)C(c1ccc(N3CCC4(CCN(c5ccc([C@@H]6c7ccc(O)cc7CC[C@@H]6c6ccccc6)cc5)CC4)C3)cc1)=N[C@@H](C)c1nnc(C)n1-2 [III-120] | 500 to 2500 nM | > 2500 nM
34 | 500 to 2500 nM | COC1(CN2CCN(c3ccc([C@@H]4c5ccc(O)cc5CC[C@@H]4c4ccccc4)cc3)CC2)CCN(c2ccc(C3=N[C@@H](C)c4nnc(C)n4-c4sc(C)c(C)c43)cc2)CC1 [III-121] | > 2500 nM | 500 to 2500 nM
35 | 50 to 500 nM | Cc1sc2c(c1C)C(c1ccc(N3CCN(CC4CCN(c5ncc([C@@H]6c7ccc(O)cc7CC[C@@H]6c6ccccc6)cn5)CC4)CC3)cc1)=N[C@@H](C)c1nnc(C)n1-2 [III-123] | 500 to 2500 nM | < 50 nM
